Data taken from patent US7314863B2, “Cyclic peptidomimetic urokinase receptor antagonists” (Wilex AG, priority 1999, dated 2008).
Positions of bridges follow the written chain, without caps; N, C: chain ends. Non-standard residues stand in square brackets, D forms with d. Residues, ends and D or L forms follow the SMILES beside them. Tic = O=C(O)[C@@H]1Cc2ccccc2CN1; Nle = CCCC[C@H](N)C(=O)O; Orn = NCCC[C@H](N)C(=O)O; Dab = NCC[C@H](N)C(=O)O; Dap = NC[C@H](N)C(=O)O

What was measured:
[1] = Peptide stability in heparinized human complete blood (HPLC); format: in vitro ADME; conditions: for stability in heparinized human blood: 37° C., 20.5 h, HPLC of plasma; for distribution between plasma and blood cells: heparinized human blood, peak integrals versus PBS control
Description: (§1) The stability of uPA-derived peptides in human serum or complete blood was assayed in vitro.
(§2) For stability studies in human complete blood, coagulation of venous blood was inhibited by heparin sodium (1 000 IU per 10 ml of complete blood), and the blood was used freshly. The peptides to be tested were added to the body fluids in the form of peptide-mixture stock solutions (≧1 μg per peptide in H2O) at a concentration of 5 μg/100 μl of serum or 200 μl of complete blood (per peptide) and incubated at 37° C. for various times. Prior to HPLC analysis, complete blood incubations were centrifuged at 16 000×g at room temperature for 5 min and the plasma in the supernatant was removed.
(§3) Sera and plasmas were prepurified via HLB precolumns (Waters GmbH, Oasis HLB extraction cartridge 1 cm^3/30 mg) prior to HPLC analysis. For this purpose, 100 μl of liquid were diluted with PBS to 1 ml and applied to said HLB precolumns equilibrated with 1 ml of 100% methanol and 1 ml of H2O. The columns were washed with 1ml of 5% methanol in H2O and eluted with 1 ml of 100% methanol. The first 200 μl (4 drops) of the eluate were discarded as void volume. The next 500 μl of eluate were diluted with 500 μl of PBS and analyzed by HPLC. The remaining 300 μl of the eluate were discarded. HPLC analysis was carried out using a YMC-5 C18 analytical column and a 20-60% gradient of H2O, 0.1% trifluoroacetic acid and acetonitrile, 0.1% trifluoroacetic acid over 30 min and detecting the analytes at 220 nm.
The stability in heparinized human blood (FIG. 4b) was studied by adding 750 μl of freshly prepared heparinized human blood to 37.5 μg of the peptides. Immediately thereafter, 375 μl were removed by centrifugation. 100 μl of the plasma supernatant were analyzed (middle profile). The remaining 375 μl were incubated with gentle agitation at 37° C. for 20.5 h and then analyzed (bottom profile). As a control, 5 μg of the peptides had already been admixed with 1 ml of PBS and analyzed (top profile).

[2] = Peptide stability in human serum (HPLC); format: in vitro ADME; conditions: 37° C., 20.5 h
Description: as §1
Human sera were prepared by allowing venous blood to coagulate without anti-coagulant in polypropylene tubes at 37° C. for 45 min. The clots adhering to the vessel wall were removed using a plastic stick and removed by centrifugation at 1200×g at room temperature for 12 min. The serum in the supernatant was removed and either used freshly for stability studies or frozen in aliquots at −20° C. for further use.
as §2
as §3, with “The remaining 300 μl of the eluate were discarded. HPLC analysis was carried out using a YMC-5 C18 analytical column and a 20-60% gradient of H2O, 0.1% trifluoroacetic acid and acetonitrile, 0.1% trifluoroacetic acid over 30 min and detecting the analytes at 220 nm.” left out
The stability of the peptides inhuman serum (FIG. 4a) was studied by adding a mixture of in each case 12.5 μg of the peptides to about 250 μl of serum. 100 μl thereof were diluted with PBS to 1 ml, prepurified on an HLB precolumn and analyzed immediately by HPLC (middle profile). A further 100 μl were analyzed after 20.5 h of incubation at 37° C. […] As a control, in each case 5 μg of the peptides were admixed with 1 ml of PBS and analyzed (top profile). […]

plasmin = assay: Sensitivity to the tissue protease plasmin (HPLC); format: in vitro ADME; conditions: 0.05 U plasmin, 37° C., 30 min, pH 7.5
Description: The sensitivity of peptides against the attack of various proteases of the digestive tract was determined in vitro using purified enzymes under suitable buffer conditions. In general, 10 μg of peptide were incubated in a 100 μl volume with 2 μg of protease at 37° C. for 30 min under the buffer conditions for the activity controls as stated by the manufacturer. After incubation and dilution with 300 μl of H2O, the mixtures were analyzed directly, without prepurification via a precolumn, by HPLC using a 20-60% gradient of H2O, 0.1% trifluoroacetic acid and acetonitrile, 0.1% trifluoroacetic acid.
Pepsin (Sigma, Deisenhofen, Germany) was incubated with peptides in 52 mM HCl. Incubations with trypsin (Sigma) were carried out in 63 mM sodium phosphate pH 7.6. Chymotrypsins α, β, γ,δ (ICN) were incubated in 50 mM CaCl2 and 40 mM Tris/HCl pH 7.8. This was followed by incubating with bacteriae proteinase K in unbuffered water. The positive control used was the *peptide cyclo[19,31]-uPA16-32 which corresponds to the original sequence of the uPA omega loop except for the cysteine bridge. The peptide sensitivity against the tissue protease plasmin (Sigma) was assayed in mixtures with 10 or 5 μg of peptides and 0.05 U of plasmin in 100 μl of 200 mM sodium phosphate pH 7.5 at 37° C. and a 30 min incubation period.
FIG. 5 depicts HPLC profiles of peptide variants prior to (top profiles) and after (bottom profiles) incubation with plasmin. Part (A) of the figure depicts the unaltered lead structure cyclo[21,29][D-Cys^21Cys^29]-uPA21-30 with lysine at position 23, (B) the ornithine-substituted variant cyclo[21,29][D-Cys^21Orn^23Cys^29]-uPA21-30, (C) the diaminobutyric acid-substituted variant cyclo[21,29][D-Cys^21Dab^23Cys^29]-uPA21-30, (D) the diaminopropionic acid-substituted variant cyclo[21,29][D-Cys^21Dap^23Cys^29]-uPA21-30, (E) the norleucine-substituted variant cyclo[21,29][D-Cys^21Nle^23Cys^29]-uPA21-30 and (F) the arginine-substituted variant cyclo[21,29][D-Cys^21Arg^23Cys^29]-uPA21-30. The protease plasmin appears in the bottom profiles in each case at approx. 17.5 min.

uPAR = target: T1, uPAR (Homo sapiens, UniProt Q03405); assay: Flow cytometry: inhibition of FITC-pro-uPA binding to uPAR on PMA-stimulated U937 cells; conditions: for IC50: FIG. 1a, read-out: IC50 (inhibition of uPA/uPAR interaction) (converted); for affinity/activity for uPAR lower than that of ATF: relative to ATF
T1 construct: human promyeloid cell line U937 as source for cellular native uPAR; endogenous in cells; host or cells: U937 cells stimulated with PMA
Description: The capacity of the synthetic peptides for inhibiting uPA/uPAR interaction was determined using the human promyeloid cell line U937 as source for cellular native uPAR by means of flow cytometry on a FACScan flow cytometer (Becton-Dickinson, Heidelberg, Germany) (Chuchulowski et al., Fibrinolysis 6, Suppl. 4 (1992), 95-102; Magdolen et al., (1996), supra). The U937 cells were stimulated with […] phorbol 12-myristate 13-acetate (PMA) for 48 h. After stimulation with PMA, the U937 cells express considerable amounts of cell surface-associated uPAR.
The stimulated cells were treated with 50 m glycine-HCl, 0.1 NaCl, pH 3.6 at room temperature for 1 min, in order to dissociate endogenous receptor-bound uPA. Subsequently, the acidic buffer was neutralized by 0.5 M HEPES, 100 mM NaCl, pH 7.5. The cells were then immediately washed twice with PBS/0.1% bovine serum albumin (BSA) and centrifuged at 300×g at room temperature for 10 min. The cells were resuspended in PBS/0.1% BSA, adjusted to a concentration of 10^6 cells per ml and incubated simultaneously with 1.6 ng of FITC-conjugated pro-uPA and different amounts of the synthetic peptides at room temperature for 45 min. Prior to analysis, propidium iodide, a fluorescent dye binding specifically double-stranded DNA, was added to each sample, in order to determine the viability of the analyzed U937 cells. Damaged, propidium iodide-labeled cells were excluded from the analysis.

T1 sequence (Q03405 23-305): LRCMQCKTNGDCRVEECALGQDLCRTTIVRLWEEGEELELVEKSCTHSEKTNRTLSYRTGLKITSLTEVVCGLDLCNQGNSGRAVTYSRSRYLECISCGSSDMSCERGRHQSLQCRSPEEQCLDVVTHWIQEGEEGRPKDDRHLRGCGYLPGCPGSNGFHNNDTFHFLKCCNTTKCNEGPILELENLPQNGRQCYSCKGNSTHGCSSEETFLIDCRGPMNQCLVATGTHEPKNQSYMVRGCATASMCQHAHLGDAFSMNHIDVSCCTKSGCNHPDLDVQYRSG

| stability in heparinized human blood [1] | stability in human serum [2] | stability against plasmin (plasmin) | Molecule | other results |
| --- | --- | --- | --- | --- |
| stable | unaltered |  | CC[C@H](C)[C@@H]1NC(=O)[C@H](CC(N)=O)NC(=O)[C@H](CO)NC(=O)[C@@H]2Cc3ccccc3CN2C(=O)[C@H](Cc2ccc(O)cc2)NC(=O)[C@H](CCCCN)NC(=O)[C@H](CC(N)=O)NC(=O)[C@H](N)CSSC[C@@H](C(=O)N[C@@H](Cc2c[nH]c3ccccc23)C(=O)O)NC1=O [cyclo[21,29][D-Cys^21,Tic^25,Cys^29]-uPA21-30] (H-[dC]NKY[Tic]SNICW-OH; disulfide 1-9; N-terminus assumed) | distribution between plasma and blood cells [1]: distributed mainly in the plasma |
|  |  | plasmin-sensitive | CC[C@H](C)[C@@H]1NC(=O)[C@H](CC(N)=O)NC(=O)[C@H](CO)NC(=O)[C@H](Cc2ccccc2)NC(=O)[C@H](Cc2ccc(O)cc2)NC(=O)[C@H](CCCNC(=N)N)NC(=O)[C@H](CC(N)=O)NC(=O)[C@H](N)CSSC[C@@H](C(=O)N[C@@H](Cc2c[nH]c3ccccc23)C(=O)O)NC1=O [cyclo[21,29][D-Cys^21Arg^23Cys^29]-uPA21-30] (H-[dC]NRYFSNICW-OH; disulfide 1-9; N-terminus assumed) |  |
|  |  | stable against plasmin | CC[C@H](C)[C@@H]1NC(=O)[C@H](CC(N)=O)NC(=O)[C@H](CO)NC(=O)[C@H](Cc2ccccc2)NC(=O)[C@H](Cc2ccc(O)cc2)NC(=O)[C@H](CCN)NC(=O)[C@H](CC(N)=O)NC(=O)[C@H](N)CSSC[C@@H](C(=O)N[C@@H](Cc2c[nH]c3ccccc23)C(=O)O)NC1=O [cyclo[21,29][D-Cys^21Dab^23Cys^29]-uPA21-30] (H-[dC]N[Dab]YFSNICW-OH; disulfide 1-9; N-terminus assumed) |  |
|  |  | stable against plasmin | CC[C@H](C)[C@@H]1NC(=O)[C@H](CC(N)=O)NC(=O)[C@H](CO)NC(=O)[C@H](Cc2ccccc2)NC(=O)[C@H](Cc2ccc(O)cc2)NC(=O)[C@H](CCCN)NC(=O)[C@H](CC(N)=O)NC(=O)[C@H](N)CSSC[C@@H](C(=O)N[C@@H](Cc2c[nH]c3ccccc23)C(=O)O)NC1=O [cyclo[21,29][D-Cys^21Orn^23Cys^29]-uPA21-30] (H-[dC]N[Orn]YFSNICW-OH; disulfide 1-9; N-terminus assumed) |  |
| instability | could no longer be detected |  | cyclo[19,31]-uPA16-32 [reference compound] | part of the amount of peptide added degraded ([1]; complete blood, 10-15 min between addition and prepurification): > 80% |
|  |  | stable against plasmin | CCCC[C@@H]1NC(=O)[C@H](CC(N)=O)NC(=O)[C@H](N)CSSC[C@@H](C(=O)N[C@@H](Cc2c[nH]c3ccccc23)C(=O)O)NC(=O)[C@H]([C@@H](C)CC)NC(=O)[C@H](CC(N)=O)NC(=O)[C@H](CO)NC(=O)[C@H](Cc2ccccc2)NC(=O)[C@H](Cc2ccc(O)cc2)NC1=O [cyclo[21,29][D-Cys^21Nle^23Cys^29]-uPA21-30] (H-[dC]N[Nle]YFSNICW-OH; disulfide 1-9; N-terminus assumed) |  |
|  |  |  | CC[C@H](C)[C@@H]1NC(=O)[C@H](CC(N)=O)NC(=O)[C@H](CO)NC(=O)[C@H](Cc2ccccc2)NC(=O)[C@H](Cc2ccc(O)cc2)NC(=O)[C@H](CCCCN)NC(=O)[C@H](CC(N)=O)NC(=O)[C@@H](N)CSSC[C@@H](C(=O)N[C@@H](Cc2c[nH]c3ccccc23)C(=O)O)NC1=O [cyclo[21,29][Cys^21,29]-uPA21-30, reference compound] (H-CNKYFSNICW-OH; disulfide 1-9; N-terminus and C-terminus assumed) | IC50 (uPAR): 2.26 µM; affinity/activity for uPAR lower than that of ATF (uPAR): hundred-fold lower |
| stable | unaltered | a new unknown peak appeared | CC[C@H](C)[C@@H]1NC(=O)[C@H](CC(N)=O)NC(=O)[C@H](CO)NC(=O)[C@H](Cc2ccccc2)NC(=O)[C@H](Cc2ccc(O)cc2)NC(=O)[C@H](CCCCN)NC(=O)[C@H](CC(N)=O)NC(=O)[C@H](N)CSSC[C@@H](C(=O)N[C@@H](Cc2c[nH]c3ccccc23)C(=O)O)NC1=O [cyclo[21,29][D-Cys^21,Cys^29]uPA21-30] (H-[dC]NKYFSNICW-OH; disulfide 1-9; N-terminus and C-terminus assumed) | distribution between plasma and blood cells [1]: distributed mainly in the plasma; IC50 (uPAR): 0.078 µM; affinity/activity for uPAR lower than that of ATF (uPAR): 4 |
|  |  | two small unidentified peaks appeared | CC[C@H](C)[C@@H]1NC(=O)[C@H](CC(N)=O)NC(=O)[C@H](CO)NC(=O)[C@H](Cc2ccccc2)NC(=O)[C@H](Cc2ccc(O)cc2)NC(=O)[C@H](CN)NC(=O)[C@H](CC(N)=O)NC(=O)[C@H](N)CSSC[C@@H](C(=O)N[C@@H](Cc2c[nH]c3ccccc23)C(=O)O)NC1=O [cyclo[21,29][D-Cys^21Dap^23Cys^29]-uPA21-30] (H-[dC]N[Dap]YFSNICW-OH; disulfide 1-9; N-terminus assumed) |  |
